Literature values in patent US11470860B2, “Animal feeds containing specific glycolipids” (PATHWAY INTERMEDIATES LIMITED, priority 2016, dated 2022).

Conditions: for stability versus pH: aqueous medium

## CC(CCCCCC/C=C\CCCCCCCC(=O)O)OC1OC(CO)C(O)C(O)C1OC1OC(CO)C(O)C(O)C1O (stereo not drawn) [Acidic sophorolipids]
  stability versus pH: instability at pH higher than 7.0
Dependence on pH
  solubility in aqueous medium: not readily soluble in aqueous medium at acidic pH but become soluble at higher pH

## CC1CCCCCC/C=C\CCCCCCCC(=O)OC2C(CO)OC(OC3C(O1)OC(CO)C(O)C3O)C(O)C2O (stereo not drawn) [lactonised sophorolipids]
  stability versus pH: stable across a wider pH range
